Results reported in patent US12514251B2, “Fused heterocyclic compounds and their use as pest control agents” (priority 2020, dated 2026).

Tested on: Plutella xylostella
Assay: Plutella xylostella, leaf dip method
Type: in vivo
Details: foliar, cabbage leaf dip, second instar larvae, 72 h after release, dead + moribund vs untreated control, read-out: percent mortality
Procedure: The leaf dip method was used for testing, wherein the required quantity of the compound was weighed and dissolved in a tube containing solvent solution. The tube was put on a vortex at 2000 rpm for 90 min for proper mixing, then diluted with 0.01% Triton-X solution to get the desired test concentration. Cabbage leaves were dipped in the compound solution for 10 seconds, shade dried for 20 min and then transferred into the cells of bioassay trays. A single second instar larva was released into each cell and the tray was covered with a lid. The bio-assay trays were then kept under laboratory conditions at a temperature of 25° C. and a relative humidity of 70%. Observations on dead, moribund and alive larvae were recorded 72 h after the release. Percent mortality was calculated by combining dead and moribund larvae and comparing the result to the one of the untreated control.

## CCS(=O)(=O)c1cc(-c2cc(F)cc(F)c2)cnc1-c1ncc2nc(C(F)(F)F)n(C)c2n1 [Compound 122, 2-(5-(3,5-difluorophenyl)-3-(ethylsulfonyl)pyridin-2-yl)-9-methyl-8-(trifluoromethyl)-9H-purine]
  mortality at 300 ppm: ≥ 70%

## CCS(=O)(=O)c1cc(-c2ccc(Cl)cc2)cnc1-c1ncc2nc(C(F)(F)F)n(C)c2n1 [Compound 123, 2-(5-(4-chlorophenyl)-3-(ethylsulfonyl)pyridin-2-yl)-9-methyl-8-(trifluoromethyl)-9H-purine]
  mortality at 300 ppm: ≥ 70%

## CCS(=O)(=O)c1cc(-c2ccc(Cl)c(F)c2)cnc1-c1ncc2nc(C(F)(F)F)n(C)c2n1 [Compound 124, 2-(5-(4-chloro-3-fluorophenyl)-3-(ethylsulfonyl)pyridin-2-yl)-9-methyl-8-(trifluoromethyl)-9H-purine]
  mortality at 300 ppm: ≥ 70%

## CCS(=O)(=O)c1cc(-c2cc(Cl)cc(Cl)c2)cnc1-c1ncc2nc(C(F)(F)F)n(C)c2n1 [Compound 128, 2-(5-(3,5-dichlorophenyl)-3-(ethylsulfonyl)pyridin-2-yl)-9-methyl-8-(trifluoromethyl)-9H-purine]
  mortality at 300 ppm: ≥ 70%

## CCS(=O)(=O)c1cc(-c2ccc(C(F)(F)F)cc2)cnc1-c1ncc2nc(C(F)(F)F)n(C)c2n1 [Compound 129, 2-(3-(ethylsulfonyl)-5-(4-(trifluoromethyl)phenyl)pyridin-2-yl)-9-methyl-8-(trifluoromethyl)-9H-purine]
  mortality at 300 ppm: ≥ 70%

## CCS(=O)(=O)c1cc(-c2cc(F)cc(Cl)c2)cnc1-c1ncc2nc(C(F)(F)F)n(C)c2n1 [Compound 131, 2-(5-(3-chloro-5-fluorophenyl)-3-(ethylsulfonyl)pyridin-2-yl)-9-methyl-8-(trifluoromethyl)-9H-purine]
  mortality at 300 ppm: ≥ 70%

## CCS(=O)(=O)c1cc(-c2nccs2)cnc1-c1ccn2nc(C(F)(F)F)nc2n1 [Compound 132, 2-(5-(ethylsulfonyl)-6-(2-(trifluoromethyl)-[1,2,4]triazolo[1,5-a]pyrimidin-5-yl)pyridin-3-yl)thiazole]
  mortality at 300 ppm: ≥ 70%

## CCS(=O)(=O)c1cc(-c2cncnc2)cnc1-c1ccn2nc(C(F)(F)F)nc2n1 [Compound 135, 5-(3-(ethylsulfonyl)-5-(pyrimidin-5-yl)pyridin-2-yl)-2-(trifluoromethyl)-[1,2,4]triazolo[1,5-a]pyrimidine]
  mortality at 300 ppm: ≥ 70%

## CCS(=O)(=O)c1ccc(-n2ccc(F)n2)nc1-c1ccn2nc(C(F)(F)F)cc2n1 [Compound 140, 5-(3-(ethylsulfonyl)-6-(3-fluoro-1H-pyrazol-1-yl)pyridin-2-yl)-2-(trifluoromethyl)pyrazolo[1,5-a]pyrimidine]
  mortality at 300 ppm: ≥ 70%

## CCS(=O)(=O)c1cc(C2CC2)cnc1-c1ccn2nc(C(F)(F)F)nc2n1 [Compound 142, 5-(5-cyclopropyl-3-(ethylsulfonyl)pyridin-2-yl)-2-(trifluoromethyl)-[1,2,4]triazolo[1,5-a]pyrimidine]
  mortality at 300 ppm: ≥ 70%

## CCS(=O)(=O)c1cc(-c2cccc(OC(F)(F)C(F)F)c2)cnc1-c1ccn2nc(C(F)(F)F)nc2n1 [Compound 144, 5-(3-(ethylsulfonyl)-5-(3-(1,1,2,2-tetrafluoroethoxy)phenyl)pyridin-2-yl)-2-(trifluoromethyl)-[1,2,4]triazolo[1,5-a]pyrimidine]
  mortality at 300 ppm: ≥ 70%

## CCS(=O)(=O)c1cc(-n2cncn2)cnc1-c1ccn2nc(C(F)(F)F)nc2n1 [Compound 146, 5-(3-(ethylsulfonyl)-5-(1H-1,2,4-triazol-1-yl)pyridin-2-yl)-2-(trifluoromethyl)-[1,2,4]triazolo[1,5-a]pyrimidine]
  mortality at 300 ppm: ≥ 70%

## CCS(=O)(=O)c1cc(-n2cnc(Cl)n2)cnc1-c1ccn2nc(C(F)(F)F)nc2n1 [Compound 148, 5-(5-(3-chloro-1H-1,2,4-triazol-1-yl)-3-(ethylsulfonyl)pyridin-2-yl)-2-(trifluoromethyl)-[1,2,4]triazolo[1,5-a]pyrimidine]
  mortality at 300 ppm: ≥ 70%

## CCS(=O)(=O)c1cc(OCC2CC2)cnc1-c1ccn2nc(C(F)(F)F)nc2n1 [Compound 161, 5-(5-(cyclopropylmethoxy)-3-(ethylsulfonyl)pyridin-2-yl)-2-(trifluoromethyl)-[1,2,4]triazolo[1,5-a]pyrimidine]
  mortality at 300 ppm: ≥ 70%

## CCS(=O)(=O)c1cc(-c2ccc(Cl)c(F)c2)cnc1-c1ccn2nc(C(F)(F)F)nc2n1 [Compound 162, 5-(5-(4-chloro-3-fluorophenyl)-3-(ethylsulfonyl)pyridin-2-yl)-2-(trifluoromethyl)-[1,2,4]triazolo[1,5-a]pyrimidine]
  mortality at 300 ppm: ≥ 70%

## CCS(=O)(=O)c1cc(C)cnc1-c1ccn2nc(C(F)(F)F)cc2n1 [Compound 164, 5-(3-(ethylsulfonyl)-5-methylpyridin-2-yl)-2-(trifluoromethyl)pyrazolo[1,5-a]pyrimidine]
  mortality at 300 ppm: ≥ 70%

## CCS(=O)(=O)c1cc(NC2CC2)cnc1-c1ccn2nc(C(F)(F)F)cc2n1 [Compound 170, N-cyclopropyl-5-(ethylsulfonyl)-6-(2-(trifluoromethyl)pyrazolo[1,5-a]pyrimidin-5-yl)pyridin-3-amine]
  mortality at 300 ppm: ≥ 70%

## CCS(=O)(=O)c1ccc(C2CC2)nc1-c1ccn2nc(C(F)(F)F)cc2n1 [Compound 171, 5-(6-cyclopropyl-3-(ethylsulfonyl)pyridin-2-yl)-2-(trifluoromethyl)pyrazolo[1,5-a]pyrimidine]
  mortality at 300 ppm: ≥ 70%

## CC#Cc1ccc(S(=O)(=O)CC)c(-c2ccn3nc(C(F)(F)F)cc3n2)n1 [Compound 173, 5-(3-(ethylsulfonyl)-6-(prop-1-yn-1-yl)pyridin-2-yl)-2-(trifluoromethyl)pyrazolo[1,5-a]pyrimidine]
  mortality at 300 ppm: ≥ 70%

## CCS(=O)(=O)c1ccc(N(C)C2CC2)nc1-c1ccn2nc(C(F)(F)F)nc2n1 [Compound 176, N-cyclopropyl-5-(ethylsulfonyl)-N-methyl-6-(2-(trifluoromethyl)-[1,2,4]triazolo[1,5-a]pyrimidin-5-yl)pyridin-2-amine]
  mortality at 300 ppm: ≥ 70%

## CCS(=O)(=O)c1cc(-n2cnc(Br)n2)cnc1-c1ccn2nc(C(F)(F)F)cc2n1 [Compound 177, 5-(5-(3-bromo-1H-1,2,4-triazol-1-yl)-3-(ethylsulfonyl)pyridin-2-yl)-2-(trifluoromethyl)pyrazolo[1,5-a]pyrimidine]
  mortality at 300 ppm: ≥ 70%

## CC#Cc1cnc(-c2ccn3nc(C(F)(F)F)cc3n2)c(S(=O)(=O)CC)c1 [Compound 178, 5-(3-(ethylsulfonyl)-5-(prop-1-yn-1-yl)pyridin-2-yl)-2-(trifluoromethyl)pyrazolo[1,5-a]pyrimidine]
  mortality at 300 ppm: ≥ 70%

## CCS(=O)(=O)c1ccc(C2CC2)nc1-c1ccn2nc(C(F)(F)F)nc2n1 [Compound 180, 5-(6-cyclopropyl-3-(ethylsulfonyl)pyridin-2-yl)-2-(trifluoromethyl)-[1,2,4]triazolo[1,5-a]pyrimidine]
  mortality at 300 ppm: ≥ 70%

## CCSc1ccc(C)nc1-c1ccn2nc(C(F)(F)F)cc2n1 [Compound 181, 5-(3-(ethylthio)-6-methylpyridin-2-yl)-2-(trifluoromethyl)pyrazolo[1,5-a]pyrimidine]
  mortality at 300 ppm: ≥ 70%

## CCS(=O)(=O)c1ccc(C)nc1-c1ccn2nc(C(F)(F)F)nc2n1 [Compound 183, 5-(3-(ethylsulfonyl)-6-methylpyridin-2-yl)-2-(trifluoromethyl)-[1,2,4]triazolo[1,5-a]pyrimidine]
  mortality at 300 ppm: ≥ 70%
